{
  "source": "patent US20110263539A1",
  "about": "“SHIP 1 MODULATOR COMPOUNDS” (THE UNIVERSITY OF BRITISH COLUMBIA, priority 2006, published 2011)",
  "key": {"[1]": {"tested_on": "luciferase expressing OPM2 cells", "assay": "In vivo Multiple Myeloma (MM) assay (Assay 8)", "parameters": "species or system Mice", "conditions": "50 mg/kg every 3 days, subcutaneous oil depot", "procedure": "Assay 8) In vivo Multiple Myeloma (MM) assay. Mice were inoculated with at two sites each with 3×10^6 luciferase expressing OPM2 cells suspended in 50 μL of growth medium and 50 μL of Matrigel basement membrane matrix (Becton Dickenson; Bedford, Mass.). Tumors were injected subcutaneously in the upper and lower flanks of the mice and allowed to establish for 2 weeks. After 2 weeks, a test compound or control vehicle was administered in a subcutaneous oil depot at a dose of 50 mg/kg every 3 days.\nTumors were measured using bioluminescence imaging on the Xenogen IVIS 200. Mice received intra-peritoneal injections of 200 μL of D-luciferin at 3.75 mg/mL in sterile PBS. Mice were then anesthetized with isofluorane and imaged 15 minutes post-injection of luciferin. Quantification of tumor size was performed using the Living Image™ software.\nMM Xenograft murine model. Mice were inoculated with at two sites each with 3×10^6 luciferase expressing OPM2 cells suspended in 50 μL of growth medium and 50 μL of Matrigel basement membrane matrix (Becton Dickenson; Bedford, Mass.). Tumors were injected subcutaneously in the upper and lower flanks of the mice and allowed to establish for 2 weeks. […]\nTumors were measured using bioluminescence imaging on the Xenogen IVIS 200. […] Quantification of tumor size was performed using the Living Image™ software. […]"}, "MM cell lines": {"tested_on": "MM cell lines", "assay": "In vitro Multiple Myeloma (MM) assay (Assay 7); note: key: a ‘+’ indicates a positive result for desired activity; a ‘−’ indicates a negative result for desired activity", "format": "cell-based", "procedure": "Assay 7) In vitro Multiple Myeloma (MM) assay. The ability of SHIP activators to reduce tumor cell survival was assessed in MM cell lines treated with the test compound. The lines OPM1, OPM2, MM.1S and RPMI 8226 were plated at a density of 1×10^5 cells/mL in 200 μL of medium with various concentrations of the test compound, and viable cell numbers were determined on day 3 and day 5 by trypan blue exclusion. The lines RPMI 8226 and U266 were plated at a density of 1×10^6 cells/mL in 250 μL of medium with various concentrations of the test compound. At day 4, the medium of each culture was replaced by fresh medium containing the same concentration of test compound. At day 7, the viable cell number of each culture was determined by trypan blue exclusion.\nMM cell lines were cultured in 96 well plates seeded with 3×10^4 cells suspended in 200 μL of medium along with various concentrations of test compound (and associated cyclodextran vehicle control), with LY294002 serving as a positive control in the experiments. After 24-48 hrs of culture, […] of [3H]-thymidine (GE Healthcare, Baie D'Urfe, Canada) being added for the final 8 hours. Cells were harvested and DNA associated radioactivity was measured via liquid scintillation counting using a Wallac Microbeta counter (Perkin-Elmer; Boston, Mass.).\nThe ability of SHIP activators to reduce tumor cell survival was assessed in multiple myeloma (MM) cell lines treated with Compound 100 or AQX-016A. The lines OPM1, OPM2, MM.1S and RPMI 8226 were plated at a density of 1×10^5 cells/mL in 200 μL of medium with various concentrations of Compound 100, and viable cell numbers were determined on day 3 and day 5 by trypan blue exclusion. The lines RPMI 8226 and U266 were plated at a density of 1×10^6 cells/mL in 250 μL of medium with various concentrations of AQX-016A. At day 4, the medium of each culture was replaced by fresh medium containing the same concentration of AQX-016A. At day 7, the viable cell number of each culture was determined by trypan blue exclusion. Experiments were performed in triplicate.\nProliferation (DNA synthesis) assays. Proliferation was measured by measuring incorporation of [^3H]-thymidine into cells. MM cell lines were cultured in 96 well plates seeded with 3×10^4 cells suspended in 200 μL, of medium along with various concentrations of Compound 100 or AQX-016A (and associated cyclodextran vehicle control), with LY294002 serving as a positive control in the indicated experiments. After 24-48 hrs of culture, 1 μCi of [^3H]-thymidine (GE Healthcare, Baie D'Urfe, Canada) being added for the final 8 hours. Plates were frozen, which also aided in cell lysis, to terminate the experiments. Cells were then harvested onto glass fibre filters using an automatic cell harvester (TomTech; Orange, Conn.) and DNA associated radioactivity was measured via liquid scintillation counting using a Wallac Microbeta counter (Perkin-Elmer; Boston, Mass.). Wells were set up in triplicate and data is expressed as mean+/−SEM."}, "[2]": {"assay": "Initial toxicology studies", "format": "in vivo", "conditions": "data not shown", "excerpt": "A novel paradigm for inhibiting PI3K signaling through activation of the phosphatases that negatively regulate this pathway is provided. SHIP is a particularly good target for immune/hematopoietic disorders because of its restricted expression to hematopoietic cells. Because the relative activity of phosphatases present in a cell will influence the efficacy of kinase inhibitors, as discussed by Knight and Shokat, SHIP agonists may also be used to potentiate the activation of PI3K inhibitors and promote tissue targeting of PI3K inhibitors to the ematopoietic/immune cell compartment."}, "J774.1a macrophage cells [3]": {"tested_on": "J774.1a macrophage cells", "assay": "Macrophage TNF-α production (Assay 2); note: key: a ‘+’ indicates a positive result for desired activity; a ‘−’ indicates a negative result for desired activity", "format": "cell-based", "conditions": "10 μg/mL test compound, 100 ng/mL LPS, ELISA", "procedure": "Assay 2) Macrophage TNF-α production. J774.1a macrophage cells were treated with 10 μg/mL of test compound dissolved in solvent (e.g. cyclodextran) for 40 minutes prior to the addition of 100 ng/mL LPS. Culture supernatants were collected after 2 hr and 5 hr for TNF-α determination by ELISA."}, "J774.1a macrophage cells [4]": {"tested_on": "J774.1a macrophage cells", "assay": "Macrophage TNF-α NO assay (Assay 3); note: key: a ‘+’ indicates a positive result for desired activity; a ‘−’ indicates a negative result for desired activity", "format": "cell-based", "conditions": "10 μg/ml test compound, LPS, 24 hr, Griess reagent", "procedure": "Assay 3) Macrophage TNF-α NO assay. J774.1a macrophage cells were treated with 10 μg/ml of test compound dissolved in solvent for 40 minutes prior to the addition of LPS. Culture supernatants were collected after 24 hr. for determination of NO concentration using the Griess reagent."}, "[5]": {"tested_on": "neutrophil myeloperoxidase (MPO) activity", "assay": "Mouse acute cutaneous anaphylaxis model (Assay 5)", "format": "in vivo, CD1 mice", "conditions": "topical on ear, DNFB", "procedure": "Assay 5) Mouse acute cutaneous anaphylaxis model. 6-8 week old CD1 mice\n(§1) (University of British Columbia Animal Facility, Vancouver, BC) were sensitized to the hapten DNP by cutaneous application of 25 μL of 0.5% dinitrofluorobenzene (DNFB) (Sigma, Oakville, Ont) in acetone to the shaved abdomen of mice for two consecutive days. 24 hrs later, test substances (dissolved in 10 μL of 1:2 DMSO:MeOH) were painted on the right ear while the left ear received vehicle control. 30 min after drug application, DNFB was applied to both ears to induce mast cell degranulation. A 6 mm punch was taken from the ear and immediately frozen on dry ice for subsequent determination of neutrophil myeloperoxidase (MPO) activity.\nas §1, with “Mouse acute cutaneous anaphylaxis model. 6-8 week old CD1 mice (University” for “(University”, “activity. Compound 100's ability to inhibit cutaneous anaphylaxis was assessed.” for “activity.”\nAnaphylactic or allergic responses are mediated by allergen-induced degranulation of pre-sensitized mast cells. The mouse ear edema/cutaneous anaphylaxis model involves pre-sensitization of mice with the haptenizing agent dinitrofluorobenzene (DNFB). One week later the allergic reaction is elicited by painting DNFB onto the ears of the mice. The efficacy of potential anti-inflammatory compounds is tested by topical application of the test substance to one ear and comparing the resulting ear edema or inflammation of the two ears."}, "LNCaP cells": {"tested_on": "LNCaP cells", "assay": "PKB activation in LNCaP cells", "format": "cell-based, human", "conditions": "doses up to 60 μM", "procedure": "The ability of AQX-016A to inhibit activation of PIP3-dependent downstream signalling proteins in SHIP^+/+ vs SHIP^−/− cells was assessed. LPS stimulation of macrophages results in PKB phosphorylation. […] Similar protein loading was confirmed by reblotting with either antibodies to PKB or Grb2. […] Thus, AQX-016A inhibits PIP3-regulated intracellular signal transduction events in SHIP expressing hematopoietic cells, but not in SHIP-deficient hematopoietic or non-hematopoietic cells."}},
  "data": [
    {"compound": "Cc1cc(O)c(O)c2c1[C@]1(C)CCC3C(C)(C)CCC[C@]3(C)[C@H]1C2", "note": "(stereo partly shown) [AQX-016A]", "values": [
      {"measurement": "Assay Number 8: In vivo Multiple Myeloma (MM) assay", "setting": "[1]", "result": "+"},
      {"measurement": "Assay Number 7: In vitro Multiple Myeloma (MM) assay", "setting": "MM cell lines", "result": "+"},
      {"measurement": "peripheral blood cell counts or bone marrow progenitor numbers", "setting": "[2]", "result": "do not significantly affect"},
      {"measurement": "Assay Number 2: Macrophage TNF-α production", "setting": "J774.1a macrophage cells [3]", "result": "+"},
      {"measurement": "Assay Number 3: Macrophage NO", "setting": "J774.1a macrophage cells [4]", "result": "+"},
      {"measurement": "Assay Number 5: Mouse acute cutaneous anaphylaxis model", "setting": "[5]", "result": "+"},
      {"measurement": "PKB phosphorylation", "setting": "LNCaP cells", "result": "no effect"}
    ]}
  ]
}
